Several values for one entry are separate records, joined by “and”; a condition that tells them apart may be missing. Equal values may be shown once. Read-outs that look alike come from different tables or passages of the source.
Tested on: mtrC-lacZ expression
Format: cell-based, Neisseria gonorrhoeae
Settings: for β-galactosidase activity, Mean / β-galactosidase activity, single replicate: mtrCDE block (c1-c37), ΔmtrR + mtrR R176E in trans; for β-galactosidase activity, individual replicate / β-galactosidase activity, Miller units (single replicate): mtrR WT in cis; for β-galactosidase activity, individual replicate: single replicate values, second (right) block
[1] = mtrC-lacZ, ΔmtrR + mtrR D171A in trans, 6.25 µM hormone, single replicate
[2] = mtrC-lacZ, ΔmtrR + mtrR D171A in trans, 12.5 µM hormone, single replicate
[3] = mtrC-lacZ, ΔmtrR + mtrR D171A in trans, 25 µM hormone, single replicate
[4] = mtrC-lacZ, ΔmtrR + mtrR D171A in trans, 50 µM hormone, single replicate
[5] = mtrC-lacZ, ΔmtrR + mtrR WT in trans, 6.25 µM hormone, single replicate
[6] = mtrC-lacZ, ΔmtrR + mtrR WT in trans, 12.5 µM hormone, single replicate
[7] = mtrC-lacZ, ΔmtrR + mtrR WT in trans, 25 µM hormone, single replicate
[8] = mtrC-lacZ, ΔmtrR + mtrR WT in trans, 50 µM hormone, single replicate

Structure (SMILES): C[C@]12CC[C@@H]3c4ccc(O)cc4CC[C@H]3[C@@H]1CC[C@@H]2O [β-Estradiol, β-estradiol]
- Miller units, Mean (Mean of plate rows 1-4, plate columns 1-6 (first strain), 6.25 µM hormone): 83 Miller units
- Miller units, Mean (Mean of plate rows 1-4, plate columns 1-6 (first strain), 12.5 µM hormone): 113 Miller units
- Miller units, Mean (Mean of plate rows 1-4, plate columns 1-6 (first strain), 25 µM hormone): 148 Miller units
- Miller units, Mean (Mean of plate rows 1-4, plate columns 1-6 (first strain), 50 µM hormone): 162 Miller units
- Miller units, Mean (Mean of plate rows 1-4, plate columns 7-12 (second strain), 6.25 µM hormone): 163 Miller units
- Miller units, Mean (Mean of plate rows 1-4, plate columns 7-12 (second strain), 12.5 µM hormone): 152 Miller units
- Miller units, Mean (Mean of plate rows 1-4, plate columns 7-12 (second strain), 25 µM hormone): 175 Miller units
- Miller units, Mean (Mean of plate rows 1-4, plate columns 7-12 (second strain), 50 µM hormone): 160 Miller units
- induction of mtrC expression (complemented (MtrR+) strains, increasing hormone): could be induced
- induction of mtrC expression (loss of MtrR or MtrR-D171A strain): abrogated
- Miller units, Mean (mtrC-lacZ, WT strain, 6.25 µM hormone): 131 Miller units
- β-galactosidase activity (Miller units) (mtrC-lacZ, WT strain, 6.25 µM hormone, single replicate): 164 Miller units and 114 Miller units and 120 Miller units
- Miller units, Mean (mtrC-lacZ, WT strain, 12.5 µM hormone): 148 Miller units
- β-galactosidase activity (Miller units) (mtrC-lacZ, WT strain, 12.5 µM hormone, single replicate): 178 Miller units and 161 Miller units and 132 Miller units
- Miller units, Mean (mtrC-lacZ, WT strain, 25 µM hormone): 177 Miller units
- β-galactosidase activity (Miller units) (mtrC-lacZ, WT strain, 25 µM hormone, single replicate): 160 Miller units and 189 Miller units
- Miller units, Mean (mtrC-lacZ, WT strain, 50 µM hormone): 224 Miller units
- β-galactosidase activity (Miller units) (mtrC-lacZ, WT strain, 50 µM hormone, single replicate): 242 Miller units and 240 Miller units and 211 Miller units
- Miller units, Mean (mtrC-lacZ, WT, 6.25 µM hormone): 131 Miller units
- Miller units (mtrC-lacZ, WT, 6.25 µM hormone, single replicate (plate data)): 164 Miller units and 114 Miller units and 128 Miller units and 120 Miller units
- Miller units, Mean (mtrC-lacZ, WT, 12.5 µM hormone): 148 Miller units
- Miller units (mtrC-lacZ, WT, 12.5 µM hormone, single replicate (plate data)): 178 Miller units and 161 Miller units and 120 Miller units and 132 Miller units
- Miller units, Mean (mtrC-lacZ, WT, 25 µM hormone): 177 Miller units
- Miller units (mtrC-lacZ, WT, 25 µM hormone, single replicate (plate data)): 160 Miller units and 176 Miller units and 189 Miller units
- Miller units, Mean (mtrC-lacZ, WT, 50 µM hormone): 224 Miller units
- Miller units (mtrC-lacZ, WT, 50 µM hormone, single replicate (plate data)): 242 Miller units and 240 Miller units and 203 Miller units and 211 Miller units
- Miller units, Mean (mtrC-lacZ, ΔmtrR + mtrR D171A in trans, 6.25 µM hormone): 148.9 Miller units
- Miller units [1]: 158 Miller units and 155 Miller units
- β-galactosidase activity (Miller units) [1]: 155 Miller units and 147 Miller units and 135 Miller units
- Miller units, Mean (mtrC-lacZ, ΔmtrR + mtrR D171A in trans, 12.5 µM hormone): 157.2 Miller units
- Miller units [2]: 167 Miller units and 147 Miller units
- β-galactosidase activity (Miller units) [2]: 147 Miller units and 195 Miller units and 119 Miller units
- Miller units, Mean (mtrC-lacZ, ΔmtrR + mtrR D171A in trans, 25 µM hormone): 167.0 Miller units
- Miller units [3]: 203 Miller units and 162 Miller units
- β-galactosidase activity (Miller units) [3]: 162 Miller units and 132 Miller units and 171 Miller units
- Miller units, Mean (mtrC-lacZ, ΔmtrR + mtrR D171A in trans, 50 µM hormone): 162.7 Miller units
- Miller units [4]: 193 Miller units
- β-galactosidase activity (Miller units) [4]: 188 Miller units and 124 Miller units and 146 Miller units
- Miller units, Mean (mtrC-lacZ, ΔmtrR + mtrR WT in trans, 6.25 µM hormone): 116 Miller units
- Miller units [5]: 106 Miller units and 141 Miller units and 104 Miller units and 116 Miller units
- β-galactosidase activity (Miller units) [5]: 106 Miller units and 141 Miller units and 104 Miller units and 116 Miller units
- Miller units, Mean (mtrC-lacZ, ΔmtrR + mtrR WT in trans, 12.5 µM hormone): 113 Miller units
- Miller units [6]: 119 Miller units and 115 Miller units and 110 Miller units
- β-galactosidase activity (Miller units) [6]: 119 Miller units and 115 Miller units and 110 Miller units
- Miller units, Mean (mtrC-lacZ, ΔmtrR + mtrR WT in trans, 25 µM hormone): 138 Miller units
- Miller units [7]: 133 Miller units and 147 Miller units and 127 Miller units and 144 Miller units
- β-galactosidase activity (Miller units) [7]: 133 Miller units and 147 Miller units and 127 Miller units and 144 Miller units
- Miller units, Mean (mtrC-lacZ, ΔmtrR + mtrR WT in trans, 50 µM hormone): 158 Miller units
- Miller units [8]: 176 Miller units and 161 Miller units and 132 Miller units and 164 Miller units
- β-galactosidase activity (Miller units) [8]: 176 Miller units and 161 Miller units and 132 Miller units and 164 Miller units
- Miller units, Mean (mtrC-lacZ, ΔmtrR strain, 6.25 µM hormone): 210 Miller units
- β-galactosidase activity (Miller units) (mtrC-lacZ, ΔmtrR strain, 6.25 µM hormone, single replicate): 187 Miller units and 203 Miller units and 200 Miller units
- Miller units, Mean (mtrC-lacZ, ΔmtrR strain, 12.5 µM hormone): 218 Miller units
- β-galactosidase activity (Miller units) (mtrC-lacZ, ΔmtrR strain, 12.5 µM hormone, single replicate): 197 Miller units and 237 Miller units and 209 Miller units
- Miller units, Mean (mtrC-lacZ, ΔmtrR strain, 25 µM hormone): 243 Miller units
- β-galactosidase activity (Miller units) (mtrC-lacZ, ΔmtrR strain, 25 µM hormone, single replicate): 261 Miller units and 223 Miller units and 202 Miller units
- Miller units, Mean (mtrC-lacZ, ΔmtrR strain, 50 µM hormone): 255 Miller units
- β-galactosidase activity (Miller units) (mtrC-lacZ, ΔmtrR strain, 50 µM hormone, single replicate): 220 Miller units and 317 Miller units
- Miller units, Mean (mtrC-lacZ, ΔmtrR, 6.25 µM hormone): 210 Miller units
- Miller units (mtrC-lacZ, ΔmtrR, 6.25 µM hormone, single replicate (plate data)): 203 Miller units and 200 Miller units and 187 Miller units and 250 Miller units
- Miller units, Mean (mtrC-lacZ, ΔmtrR, 12.5 µM hormone): 218 Miller units
- Miller units (mtrC-lacZ, ΔmtrR, 12.5 µM hormone, single replicate (plate data)): 237 Miller units and 209 Miller units and 197 Miller units and 228 Miller units
- Miller units, Mean (mtrC-lacZ, ΔmtrR, 25 µM hormone): 243 Miller units
- Miller units (mtrC-lacZ, ΔmtrR, 25 µM hormone, single replicate (plate data)): 223 Miller units and 202 Miller units and 261 Miller units and 287 Miller units
- Miller units, Mean (mtrC-lacZ, ΔmtrR, 50 µM hormone): 255 Miller units
- Miller units (mtrC-lacZ, ΔmtrR, 50 µM hormone, single replicate (plate data)): 317 Miller units and 220 Miller units and 261 Miller units
- β-galactosidase activity, Mean (6.25 µM): 194 Miller units
- β-galactosidase activity, single replicate (6.25 µM): 207 Miller units and 196 Miller units and 188 Miller units
- β-galactosidase activity, Mean (12.5 µM): 205 Miller units
- β-galactosidase activity, single replicate (12.5 µM): 258 Miller units and 180 Miller units and 177 Miller units and 206 Miller units
- β-galactosidase activity, Mean (25 µM): 197 Miller units
- β-galactosidase activity, single replicate (25 µM): 241 Miller units and 190 Miller units and 188 Miller units and 169 Miller units
- β-galactosidase activity, Mean (50 µM): 269 Miller units
- β-galactosidase activity, single replicate (50 µM): 316 Miller units and 254 Miller units and 275 Miller units and 231 Miller units
- β-galactosidase activity, individual replicate (6.25 µM hormone): 54 Miller units and 39 Miller units
- β-galactosidase activity, Miller units (single replicate) (6.25 µM, first data set (c15-c36)): 147 Miller units and 157 Miller units and 114 Miller units and 129 Miller units
- β-galactosidase activity, Miller units (single replicate) (6.25 µM, second data set (c53-c74)): 43 Miller units and 41 Miller units
- β-galactosidase activity, individual replicate (12.5 µM hormone): 72 Miller units and 56 Miller units
- β-galactosidase activity, Miller units (single replicate) (12.5 µM, first data set (c15-c36)): 160 Miller units and 155 Miller units and 156 Miller units and 149 Miller units
- β-galactosidase activity, Miller units (single replicate) (12.5 µM, second data set (c53-c74)): 45 Miller units and 43 Miller units
- β-galactosidase activity, individual replicate (25 µM hormone): 63 Miller units
- β-galactosidase activity, Miller units (single replicate) (25 µM, first data set (c15-c36)): 152 Miller units and 181 Miller units and 159 Miller units and 157 Miller units
- β-galactosidase activity, Miller units (single replicate) (25 µM, second data set (c53-c74)): 63 Miller units and 52 Miller units
